Source: patent US8592421B2, “Cyclic bioisosters of purine system derivatives and a pharmaceutical composition based thereon” (priority 2003, dated 2013)
Marks after values point to notes of the source that are not given here.

Experiments:
plasma hemostasis [1] = assay: Prothrombin time after intravenous administration; type: in vivo, rabbit
Experimental: (§1) The static parameters of the blood and plasma coagulation (partial activated thromboplastin time, thrombin time, maximum coagulation activity (test for auto coagulation) were determined using the Behnk Electronic coagulometer (Germany). The operating principle of this instrument is based on the fact that the formed blood clot breaks the contacts of the pulse counter in the flask-pin circuit, said pin permanently oscillating in a vertical plane. The moment of formation of the clot is registered by stopping the stop watch hand.
(§2) The measurements were effected at a constant temperature of 37° C. maintained by a temperature control unit.
The method of its determination is based on estimation of the coagulation of citrate or oxalic blood plasma, when it is mixed with thromboplastin and a calcium chloride solution. Since under these conditions the time of formation of the clot depends on the content of II, VII, IX and X factors in the investigated plasma sample, now the test is called “thromboplastin time by Quick” or “activity thromboplastin complex”.
Citrate blood containing 1 part of citrate per 9 parts of native blood was centrifuged at 3000 rev/min for 10 minutes to obtain plasma deprived of thrombocytes.
Added into a test tube in a water bath were 0.1 ml of plasma and 0.1 ml of a thromboplastin solution.

[2] = test system: synthase of nitrogen oxide (NOC); assay: Morphine abstinence model: activity of synthase of nitrogen oxide (NOC), radiometric [3H]L-citrulline method; type: in vivo, rats Wistar; conditions: 20.0 mg/kg intramuscularly; for Activity of NOC: Mesencephalon: control 2.18 ± 0.09; for Activity of NOC: Hypothalamus: control 5.37 ± 0.20
[3] = Electrochemical activity: polarographic reduction on mercury dripping electrode; type: physicochemical; conditions: for i: 2.0% sodium chloride background, 9·10^−4 M; for i / −E1/2: 37° C., forward trace, average for the group of compounds; for −E1/2: vs SCE
plasma hemostasis [4] = assay: Thrombin time after intravenous administration; type: in vivo, rabbit
Experimental: The investigations were performed on 72 rabbits of the “Chinchilla” breed with a mass of 2.5±0.3 kg, who were administered which solutions of compounds 2, 15, 21, 37 in doses of 15, 30 and 60 mg/kg intravenously. The experiments included the thrombin-test (series No. 7300) and the coagulability-test (series No. 5000) purchased from the scientific-and-production association (SPA) “Renam”, thromboplastin (series No. 240600) and calcium chloride purchased from the SPA “MedioLab”
as §1, §2
The “thrombin time” characterizes the rate of transformation of fibrinogen into fibrin. It was determined by measuring the coagulation time of plasma deprived of thrombocytes under the effect of thrombin standardized by the control plasma.
0.2 ml of a thrombin solution was added to 0.2 ml of the test blood plasma of experimental animals, from whom the blood was taken 15, 30, 60 and 120 minutes after the intravenous administration of compounds 2, 15, 21, 37 according to the invention in doses of 15, 30, 60 mg/kg incubated for 1 minute at a temperature of 37° C. and the time of formation of clot T2 in seconds in a coagulometer of the Behnk Electronic Company (Germany).

In the case of Nc1cccc2c(=O)[nH][nH]c(=O)c12.[Na] [Compound 15, sodium salt of 5-amino-benzo[d]-3H-pyridazine-1,4-dione], the “prothrombin time, T” value (plasma hemostasis [1]; 15.0 mg/kg intravenously, after 15 minutes, control 11.8 ± 0.1) is reported as 11.5 ± 0.2 s, the “prothrombin time, T” value (plasma hemostasis [1]; 15.0 mg/kg intravenously, after 30 minutes, control 11.8 ± 0.1) is reported as 11.7 ± 0.2 s and the “prothrombin time, T” value (plasma hemostasis [1]; 15.0 mg/kg intravenously, after 60 minutes, control 11.8 ± 0.1) is reported as 11.2 ± 0.2 s. For the same compound, the “prothrombin time, T” value (plasma hemostasis [1]; 15.0 mg/kg intravenously, after 120 minutes, control 11.8 ± 0.1) was 11.5 ± 0.2 s, the “prothrombin time, T” value (plasma hemostasis [1]; 30.0 mg/kg intravenously, after 15 minutes, control 11.2 ± 0.1) was 11.0 ± 0.2 s and the “prothrombin time, T” value (plasma hemostasis [1]; 30.0 mg/kg intravenously, after 30 minutes, control 11.2 ± 0.1) was 11.2 ± 0.2 s. The “prothrombin time, T” value (plasma hemostasis [1]; 30.0 mg/kg intravenously, after 60 minutes, control 11.2 ± 0.1) was 11.4 ± 0.2 s, the “prothrombin time, T” value (plasma hemostasis [1]; 30.0 mg/kg intravenously, after 120 minutes, control 11.2 ± 0.1) was 11.3 ± 0.2 s and the “prothrombin time, T” value (plasma hemostasis [1]; 60.0 mg/kg intravenously, after 15 minutes, control 12.0 ± 0.1) was 12.0 ± 0.1 s. For the same compound, the “prothrombin time, T” value (plasma hemostasis [1]; 60.0 mg/kg intravenously, after 30 minutes, control 12.0 ± 0.1) was 12.0 ± 0.1 s, the “prothrombin time, T” value (plasma hemostasis [1]; 60.0 mg/kg intravenously, after 60 minutes, control 12.0 ± 0.1) was 12.0 ± 0.2 s and the “prothrombin time, T” value (plasma hemostasis [1]; 60.0 mg/kg intravenously, after 120 minutes, control 12.0 ± 0.1) was 12.0 ± 0.1 s. For the same compound, the “effect on the prothrombin time index” value (plasma hemostasis [1]; doses of 15.0, 30.0, 60.0 mg/kg) was “have no effect on the prothrombin time index”, the “Activity of NOC: Mesencephalon” value ([2]; Control + Compound) was 2.60 ± 0.29 pmol/min/mg of protein and the “Activity of NOC: Hypothalamus” value ([2]; Control + Compound) was 5.45 ± 0.24 pmol/min/mg of protein. The “Activity of NOC: Mesencephalon” value ([2]; Control + Morphine + compound) was 1.83 ± 0.23 pmol/min/mg of protein, the “Activity of NOC: Hypothalamus” value ([2]; Control + Morphine + compound) was 5.26 ± 0.28 pmol/min/mg of protein and the “number of electrons participating in the reduction reaction” value ([3]; calculated with Geirovsky-Ilkovich equation) was 4.09. The i ([3]; pH 7.0) was 0.23 ± 0.03 mkA, the “−E1/2” value ([3]; pH 7.0) was 0.092 ± 0.02 V and the i ([3]; pH 7.2) was 0.30 ± 0.01 mkA. For the same compound, the “−E1/2” value ([3]; pH 7.2) was 0.09 ± 0.01 V, the i ([3]; pH 7.4) was 0.29 ± 0.02 mkA and the “−E1/2” value ([3]; pH 7.4) was 0.092 ± 0.02 V. The i ([3]; pH 7.6) was 0.31 ± 0.02 mkA, the “−E1/2” value ([3]; pH 7.6) was 0.09 ± 0.01 V and the “half-wave potential more positive at reverse stroke compared to forward stroke” value ([3]; polarograms of reverse stroke) was 30.0 mV. The “thrombin time, T2” value (plasma hemostasis [4]; 15.0 mg/kg intravenously, after 15 minutes, control 15.8) was 17.0* s, the “thrombin time, T2” value (plasma hemostasis [4]; 15.0 mg/kg intravenously, after 30 minutes, control 15.8) was 18.5* s and the “thrombin time, T2” value (plasma hemostasis [4]; 15.0 mg/kg intravenously, after 60 minutes, control 15.8) was 16.5* s. For the same compound, the “thrombin time, T2” value (plasma hemostasis [4]; 15.0 mg/kg intravenously, after 120 minutes, control 15.8) was 15.5* s, the “thrombin time, T2” value (plasma hemostasis [4]; 30.0 mg/kg intravenously, after 15 minutes, control 14.7) was 19.7* s and the “thrombin time, T2” value (plasma hemostasis [4]; 30.0 mg/kg intravenously, after 30 minutes, control 14.7) was 20.5* s. For the same compound, the “thrombin time, T2” value (plasma hemostasis [4]; 30.0 mg/kg intravenously, after 60 minutes, control 14.7) was 21.3* s, the “thrombin time, T2” value (plasma hemostasis [4]; 30.0 mg/kg intravenously, after 120 minutes, control 14.7) was 15.0* s and the “thrombin time, T2” value (plasma hemostasis [4]; 60.0 mg/kg intravenously, after 15 minutes, control 15.2) was 16.8* s. The “thrombin time, T2” value (plasma hemostasis [4]; 60.0 mg/kg intravenously, after 30 minutes, control 15.2) was 18.0* s, the “thrombin time, T2” value (plasma hemostasis [4]; 60.0 mg/kg intravenously, after 60 minutes, control 15.2) was 16.5* s and the “thrombin time, T2” value (plasma hemostasis [4]; 60.0 mg/kg intravenously, after 120 minutes, control 15.2) was 14.7* s.
